This passage reports Kd results from patent publication US8513297B2, “Biaromatic compounds that modulate PPARy type receptors and cosmetic/pharmaceutical compositions comprised thereof” (Galderma Research & Development, priority 2004, dated 2013).

Common to all, as to type: cell-based
In test [1] the target is T1, PPARα (Homo sapiens, UniProt Q07869).
T1 construct: Either way it is a handle and not a second protein
T1 sequence (Q07869 200-468 limits assumed): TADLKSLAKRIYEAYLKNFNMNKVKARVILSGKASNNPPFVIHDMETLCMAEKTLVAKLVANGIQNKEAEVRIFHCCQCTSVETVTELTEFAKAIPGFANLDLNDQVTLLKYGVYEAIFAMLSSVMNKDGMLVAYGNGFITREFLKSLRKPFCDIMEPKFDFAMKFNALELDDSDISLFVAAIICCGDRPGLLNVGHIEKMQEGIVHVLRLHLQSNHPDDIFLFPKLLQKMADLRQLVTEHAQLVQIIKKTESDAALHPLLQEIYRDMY
The test can be described thus: Crossover-curve PPAR transactivation test, PPARα. The conditions noted are these: HeLN cells stably transfected with Gal-hPPARα and luciferase reporter; Schild regression against reference agonist; n.a. means not active; read-out: PPARα Kd app. As for the experimental part: (§1) The activation of PPAR receptors with an agonist (activator) in HeLN cells leads to the expression of a reporter gene, luciferase, which, in the presence of a substrate, generates light. The modulation of the PPAR receptors is measured by quantifying the luminescence produced after incubating the cells in the presence of a reference agonist. The ligands displace the agonist from its site. The measurement of the activity is performed by quantifying the light produced. This measurement makes it possible to determine the modulatory activity of the compounds according to the invention by determining the constant that is the affinity of the molecule for the PPAR receptor. Since this value can fluctuate depending on the basal activity and the expression of the receptor, it is referred to as Kd apparent (KdApp in nM).
(§2) To determine this constant, “crossover curves” of the test product against a reference agonist are performed in a 96-well plate: 10 concentrations of the test product plus a concentration 0 are arranged in a line, and 7 concentrations of the agonist plus a concentration 0 are arranged in a column. This is 88 measurement points for 1 product and 1 receptor. The remaining 8 wells are used for repeatability controls.
(§3) Measurements are also taken for total agonist controls with the same products.
(§4) The HeLN cell lines used are stable transfectants containing the plasmids ERE-βGlob-Luc-SV-Neo (reporter gene) and PPAR (α, δ, γ) Gal-hPPAR. These cells are inoculated into 96-well plates at a rate of 10 000 cells per well in 100 μl of DMEM medium without phenol red and supplemented with 10% of defatted calf serum. The plates are then incubated at 37° C. and 7% CO2 for 16 hours.
(§5) The various dilutions of the test products and of the reference ligand are added at a rate of 5 μl per well. The plates are then incubated for 18 hours at 37° C. and 7% CO2. The culture medium is removed by turning over and 100 μl of a 1:1 PBS/luciferine mixture are added to each well. After 5 minutes, the plates are read by the luminescence detector.
(In general: A reporter such as luciferase makes a cellular process visible.)

The target of test [2] is T2, PPARγ (Homo sapiens, UniProt P37231).
T2 construct: Either way it is a handle and not a second protein
T2 sequence (P37231 238-505 limits assumed): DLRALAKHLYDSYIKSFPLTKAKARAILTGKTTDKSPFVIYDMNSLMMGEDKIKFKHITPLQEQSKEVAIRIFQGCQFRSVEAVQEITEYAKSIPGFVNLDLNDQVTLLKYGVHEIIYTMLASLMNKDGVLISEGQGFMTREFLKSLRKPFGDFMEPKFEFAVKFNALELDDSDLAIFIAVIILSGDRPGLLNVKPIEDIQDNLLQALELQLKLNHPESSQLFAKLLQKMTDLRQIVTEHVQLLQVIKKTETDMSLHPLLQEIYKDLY
The test can be described thus: Crossover-curve PPAR transactivation test, PPARγ. To be noted: HeLN cells stably transfected with Gal-hPPARγ and luciferase reporter; Schild regression against reference agonist; n.a. means not active; read-out: PPARγ Kd app. On the procedure:
as §1, §2, §3, §4, §5

For test [3], the target named is T3, PPARδ (Homo sapiens, UniProt Q03181).
T3 construct: Either way it is a handle and not a second protein
T3 sequence (Q03181 211-441 limits assumed): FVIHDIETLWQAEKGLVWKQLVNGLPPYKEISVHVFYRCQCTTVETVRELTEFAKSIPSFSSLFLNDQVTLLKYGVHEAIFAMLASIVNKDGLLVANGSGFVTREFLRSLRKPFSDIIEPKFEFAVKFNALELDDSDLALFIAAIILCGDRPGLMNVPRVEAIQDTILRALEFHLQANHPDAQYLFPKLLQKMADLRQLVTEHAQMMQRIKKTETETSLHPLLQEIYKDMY
The test can be described thus: Crossover-curve PPAR transactivation test, PPARδ. To be noted: HeLN cells stably transfected with Gal-hPPARδ and luciferase reporter; Schild regression against reference agonist; n.a. means not active; read-out: PPARδ Kd app. As for the experimental part:
as §1
To determine this constant, “crossover curves” of the test product against a reference agonist are performed in a 96-well plate: 10 concentrations of the test product plus a concentration 0 are arranged in a line, and 7 concentrations of the agonist plus a concentration 0 are arranged in a column. This is 88 measurement points for 1 product and 1 receptor. […]
The various dilutions of the test products and of the reference ligand are added at a rate of 5 μl per well. […] After 5 minutes, the plates are read by the luminescence detector.

Counter-ions that a name gives are not always drawn.

With `CCCCCNC(=O)N(C)c1cccc(-c2ccc(CCC(=O)O)cc2OCCCC)n1` [Example 11, 2-[2-butoxy-4-(2-carboxyethyl)phenyl]-6-(1-methyl-3-pentylureido)pyridinium hydrochloride], the Kd in test [1] turned out to be 2000 nM; in test [2], 120 nM.
With `CCCCCCCC(=O)N(C)Cc1cc(-c2ccc(CCC(=O)O)cc2OCCCC)cs1` [Example 14, 3-(3-butoxy-4-{5-[(methyloctanoylamino)methyl]thiophen-3-yl}phenyl)propanoic acid], the Kd in test [2] turned out to be 2 nM.
Still for that read-out and setting: the figure for `CCCCOc1cc(CCC(=O)O)ccc1-c1csc(CN(C)C(=O)c2cccc(OC)c2)c1` [Example 16, 3-[3-butoxy-4-(5-{[(3-methoxybenzoyl)methylamino]methyl}thiophen-3-yl)phenyl]propanoic acid] is 30 nM.
On to `CCCCCCCNC(=O)N(C)c1cccc(-c2ccc(CCC(=O)O)cc2OCC)n1` [Example 13, 2-[4-(2-carboxyethyl)-2-ethoxyphenyl]-6-(3-heptyl-1-methylureido)pyridinium hydrochloride], for which the Kd in test [1] turned out to be 4000 nM; in test [3], 8000 nM; in test [2], 120 nM.
Take `CCCCOc1cc(CCC(=O)O)ccc1-c1csc(CN(C)C(=O)c2ccc(OC)cc2)c1` [Example 15, 3-[3-butoxy-4-(5-{[(4-methoxybenzoyl)methylamino]methyl}thiophen-3-yl)phenyl]propanoic acid]: the Kd in test [2] was 30 nM.
The same measure, in the same setting: the figure for `CCCCCCCNC(=O)N(C)c1cccc(-c2ccc(CCC(=O)O)cn2)c1` [Example 7, 3-{6-[3-(3-heptyl-1-methylureido)phenyl]pyrid-3-yl}propanoic acid] is 60 nM; for `CCCCCCCC(=O)N(C)Cc1cccc(-c2ccc(/C=C/C(=O)O)s2)c1` [Example 1, 3-(5-{3-[(methyloctanoylamino)methyl]phenyl}thiophen-2-yl)acrylic acid] it is 1000 nM.
Same read-out and setting: the figure for `CCCCCCCC(=O)N(C)Cc1cccc(-c2ccc(CCC(=O)O)s2)c1` [Example 2, 3-(5-{3-[(methyloctanoylamino)methyl]phenyl}thiophen-2-yl)propanoic acid] is 500 nM.
Regarding `CCCCCCCNC(=O)N(C)c1cccc(-c2ccc(CCC(=O)O)cc2OCCCC)n1` [Example 12, 2-[2-butoxy-4-(2-carboxyethyl)phenyl]-6-(1-methyl-3-heptylureido)pyridinium hydrochloride], the Kd in test [1] worked out at 4000 nM; in test [2] it was 15 nM.
Take `CCCCCCCNC(=O)N(C)c1ccnc(-c2ccc(CCC(=O)O)cc2)c1` [Example 8, 2-[4-(2-carboxyethyl)phenyl]-4-(3-heptyl-1-methylureido)pyridinium acetate]: in test [2], the Kd worked out at 1000 nM.
Turning to `CCCCCCCNC(=O)N(C)c1cccc(-c2ccc(CCC(=O)O)cc2)n1` [Example 6, 3-{4-[6-(3-heptyl-1-methylureido)pyrid-2-yl]phenyl}propanoic acid], the Kd in test [3] was 4000 nM; in test [2] it was 250 nM.
